According to patent US8710061B2, “Compounds for the reduction of β-amyloid production” (Bristol-Myers Squibb Company, priority 2011, dated 2014):

System: Aβ42 production in H4 APP751 SWE clone 8.20 cells
Experiment: Cellular assay for inhibition of Aβ1-42 production
Assay type: cell-based
Conditions: 19 h incubation, read-out: Activity Rating (Aβ42 cellular IC50), class symbol
Description: Cellular Assays for Inhibition of Aβ1-40 and Aβ1-42 Production
H4 cells stably transfected with APP751 containing the Swedish mutation (H4 APP751 SWE clone 8.20, developed at BMS) were maintained in log phase through twice weekly passage at a 1:20 split. […] Following incubation for 19 h in 5% CO2 at 37° C., plates were briefly centrifuged (1000 rpm, 5 min). A 10 μl aliquot from each well was transferred to a second assay plate (Costar 3709) for Aβ40 measurements. Antibody cocktails were freshly prepared by dilution into 40 mM Tris-HCl (pH 7.4) with 0.2% BSA and added to assay plates. For Aβ42 measurements, antibodies specific for the Aβ42 neoepitope (565, developed at BMS; conjugated to the Wallac reagent (Perkin Elmer)) and the N-terminal sequence of Aβ peptide (26D6, developed at SIBIA; conjugated to […] (Perkin Elmer)) were mixed and 20 μl of the mixture was added to each well of the incubated cell plate yielding a final concentration of 0.8 ng/well 565 and 75 ng/well 26D6. For the Aβ40 measurements, antibodies specific for the Aβ40 neoepitope (TSD, developed at BMS; conjugated to the Wallac reagent (Perkin Elmer)) and 26D6 as described above were mixed and 20 μl of the mixture was added to the 10 μl aliquots which had been removed previously from the cell plate yielding a final concentration of 1.6 ng/well TSD and 17.5 ng/well 26D6. Assay plates containing antibodies were sealed with aluminum foil and incubated overnight at 4° C. Signal was determined using a Viewlux counter (Perkin Elmer) and IC50 values determined using curve fitting in CurveMaster (Excel Fit based).

SMILES	IC50
CNc1nc(Nc2ccc(C#N)c(OC)c2)nc2c1CCC2c1cccc(OC)c1 (racemic) [Example 7, 2-methoxy-4-(7-(3-methoxyphenyl)-4-(methylamino)-6,7-dihydro-5H-cyclopenta[d]pyrimidin-2-ylamino)benzonitrile]	10 to 100 nM
CNc1nc(Nc2ccc(C#N)c(OC)c2)nc2c1CC[C@H]2c1ccc(Cl)cc1F (single isomer, unassigned) [Example 6A]	10 to 100 nM
CNc1nc(Nc2ccc(C#N)c(OC)c2)nc2c1CC[C@]2(C)c1ccc(F)cc1 [Example 2B, (R)-4-(7-(4-fluorophenyl)-7-methyl-4-(methylamino)-6,7-dihydro-5H-cyclopenta[d]pyrimidin-2-ylamino)-2-methoxybenzonitrile]	100 to 1000 nM
CNc1nc(Nc2ccc(C#N)c(OC)c2)nc2c1CCC2c1ccc(C(F)(F)F)cc1F (centres unmarked) [Example 8, 4-(7-(2-fluoro-4-(trifluoromethyl)phenyl)-4-(methylamino)-6,7-dihydro-5H-cyclopenta[d]pyrimidin-2-ylamino)-2-methoxybenzonitrile]	10 to 100 nM

Other lines, results leading:

IC50	SMILES
1.5 to 9.9 nM	CNc1nc(Nc2ccc(C#N)c(OC)c2)nc2c1CC[C@H]2c1ccccc1Cl (single isomer, unassigned) [Example 3A]
10 to 100 nM	CNc1nc(Nc2ccc(C#N)c(OC)c2)nc2c1CC[C@H]2c1ccccc1F (single isomer, unassigned) [Example 4A]
10 to 100 nM	CNc1nc(Nc2ccc(C#N)c(OC)c2)nc2c1CC[C@@H]2c1ccccc1OC [Example 1B, (R)-2-methoxy-4-(7-(2-methoxyphenyl)-4-(methylamino)-6,7-dihydro-5H-cyclopenta[d]pyrimidin-2-ylamino)benzonitrile]

Same assay, conditions: 19 h incubation, read-out: Activity Rating (Aβ42 cellular IC50), given as number

IC50	SMILES
13 nM	CNc1nc(Nc2ccc(C#N)c(OC)c2)nc2c1CC[C@H]2c1ccccc1OC (single isomer, unassigned) [Example 1A]
11 nM	CNc1nc(Nc2ccc(C#N)c(OC)c2)nc2c1CC[C@H]2c1c(F)cc(F)cc1F (single isomer, unassigned) [Example 5A]
200 nM	CNc1nc(Nc2ccc(C#N)c(OC)c2)nc2c1CC[C@@]2(C)c1ccc(F)cc1 [Example 2A, (S)-4-(7-(4-fluorophenyl)-7-methyl-4-(methylamino)-6,7-dihydro-5H-cyclopenta[d]pyrimidin-2-ylamino)-2-methoxybenzonitrile]
12 nM	CNc1nc(Nc2ccc(C#N)c(OC)c2)nc2c1CCC2c1ccc(OC(F)(F)F)cc1F (centres unmarked) [Example 9, 4-(7-(2-fluoro-4-(trifluoromethoxy)phenyl)-4-(methylamino)-6,7-dihydro-5H-cyclopenta[d]pyrimidin-2-ylamino)-2-methoxybenzonitrile]
